Results: paper PMC10579241, “Impact of trifluoromethyl and sulfonyl groups on the biological activity of novel aryl-urea derivatives: synthesis, in-vitro, in-silico and SAR studies” (Scientific Reports, 2023)
Values after ≈ are worked out from the molar mass of the structure shown. Like-named read-outs stand apart in the source and are kept apart here. Marks after values point to notes of the source that are not given here.

How the values were obtained:
skin cancer (A431) = experiment: cells; format: cell-based; conditions: Homo sapiens, 48 h
Escherichia coli [1] = experiment: Agar well diffusion, E. coli; format: cell-based; conditions: Escherichia coli, read-out: Inhibition zones diameter
Bacillus mycoides [2] = experiment: microbe, parasite or virus in culture; format: cell-based
[3] = tested on: hepatocellular carcinoma cell line (HePG2); experiment: cells; format: cell-based; conditions: Homo sapiens, 48 h
Candida albicans [4] = experiment: Agar well diffusion, C. albicans; format: cell-based
TP53 = experiment: qRT-PCR, TP53 in HCT116 cells; format: cell-based, human; conditions: versus negative samples
Protocol: RNA was extracted from pancreas, prostate, lung and liver cell lines using a total RNA purification kit (Qiagen, Hilden, Germany) according to the manufacturer's instructions. An aliquot of RNA was diluted in RNase-free water to estimate RNA quantity. Aliquots were used immediately for reverse transcription (RT). cDNA synthesis was performed on extracted RNA, which was treated with DNase (Invitrogen, Germany) to remove any possible DNA contamination. The DNase-treated RNA was reverse transcribed into first-strand cDNA using the RevertAid First Strand cDNA Synthesis kit (Fermantas) according to the manufacturer's instructions. Determination of the pancreas, prostate, lung and liver cell line cDNA copy number was carried out using StepOne™ Real-Time PCR System from Applied Biosystems (Thermo Fisher Scientific, Waltham, MA USA). Gene expressions were detected by real-time PCR, which was performed using the Rotor-Gene Q system (Qiagen Company). A 25 µL reaction mixture consisted of 12.5 µL SYBR® Premix Ex TaqTM (TaKaRa, Biotech. Co. Ltd.), 0.5 µL of each primer (10 PMole) (Table 1), 1 µL cDNA (50 ng) and 10.5 µL RNase free water. The optimum amplification conditions were chosen empirically according to each tested gene. Generally, the amplification conditions include initial incubation (95.0 °C for 3 min), then 40 cycles of amplification with denaturation (95.0 °C for 15 s), annealing (55.0 °C for 30 s) and extension (72.0 °C for 30 s) steps then 71 cycles which started at 60.0 °C and then increased about 0.5 °C every 10 s up to 95.0 °C. Mean cycle threshold (Ct) values of triplicate samples are used for analysis. The Ct value indicates the fractional cycle number at which the amount of amplified target reaches a fixed threshold. Data from real-time PCR were analyzed using 2^−∆∆Ct method[38]–[40]. Data were represented as the fold change in target gene expression normalized to a House-Keeping gene (HKG) and relative to the control. β-actin was used as a HKG to normalize input RNA amount, RNA quality and reverse transcription efficiency.

Candida albicans [5] = experiment: MIC by serial dilution (agar wells), C. albicans; format: cell-based
HCT116 [6] = experiment: DNA damage, comet assay, HCT116; format: cell-based, human
HCT116 [7] = experiment: DNA fragmentation assay, HCT116; format: cell-based, human
in vitro = format: cell-based; conditions: human, BJ1 normal skin fibroblast cells, 100 μg/mL
[8] = tested on: normal skin fibroblast cell line (BJ1); experiment: cells; format: cell-based; conditions: Homo sapiens, Skin fibroblast, MTT, 48 h
[9] = tested on: osteosarcoma cell line (HOS); experiment: cells; format: cell-based; conditions: Homo sapiens, 48 h
colon cancer (HCT116) = experiment: cells; format: cell-based; conditions: Homo sapiens
Bacillus mycoides [10] = experiment: microbe, parasite or virus in culture; format: cell-based; remark: listed apart in the source
FASN = experiment: qRT-PCR, FASN in HCT116 cells; format: cell-based, human; conditions: versus negative samples
Escherichia coli [11] = experiment: MIC by serial dilution (agar wells), E. coli; format: cell-based
[12] = 0.00488 mg/mL, 150 µL in DMSO, 15 mm agar well
[13] = 0.00975 mg/mL, 150 µL in DMSO, 15 mm agar well
[14] = 0.0195 mg/mL, 150 µL in DMSO, 15 mm agar well
[15] = 0.0391 mg/mL, 150 µL in DMSO, 15 mm agar well
[16] = 0.0781 mg/mL, 150 µL in DMSO, 15 mm agar well
[17] = 0.1563 mg/mL, 150 µL in DMSO, 15 mm agar well
[18] = 0.3125 mg/mL, 150 µL in DMSO, 15 mm agar well
[19] = 0.625 mg/mL, 150 µL in DMSO, 15 mm agar well
[20] = 1.25 mg/mL, 150 µL in DMSO, 15 mm agar well
[21] = 2.50 mg/mL, 150 µL in DMSO, 15 mm agar well
[22] = 5.00 mg/mL, 150 µL in DMSO, 15 mm agar well
[23] = 10.0 mg/mL, 150 µL in DMSO, 15 mm agar well
[24] = read-out: Minimum inhibition concentration (MIC)

## Cc1ccc(S(=O)(=O)NC(=O)Nc2cc(C(F)(F)F)cc(C(F)(F)F)c2)cc1 [Compound 9, N-[(3,5-bis{Trifluoromethyl}phenyl)carbamoyl]-4-methylbenzenesulfonamide]
Skin cancer (A431); A-431, 100 μg/mL
  mortality at 100 µg/mL: 100%
Skin cancer (A431); A-431, MTT
  IC50: 113.3 ± 0.68 µM
Escherichia coli [1]
  zone of inhibition at 10000 µg/mL: 37 ± 0.74 mm
Bacillus mycoides [2]; B. mycoides, 200 μL of 10 mg/mL in DMSO in 15 mm holes, overnight 37 °C
  Inhibition zones diameter: 41 ± 0.0 mm
Bacillus mycoides [2]; Bacillus mycoides, read-out: Inhibition zones diameter
  zone of inhibition at 10000 µg/mL: 41 mm
[3]; 100 μg/mL
  mortality at 100 µg/mL: 100%
[3]; MTT
  IC50: 12.4 ± 0.17 µM
Candida albicans [4]; C. albicans, 200 μL of 10 mg/mL in DMSO in 15 mm holes, overnight 37 °C
  Inhibition zones diameter: 41 ± 0.21 mm
Candida albicans [4]; Candida albicans, read-out: Inhibition zones diameter
  zone of inhibition at 10000 µg/mL: 41 mm
TP53
  TP53 gene expression level: suppression
Candida albicans [5]; [12]
  zone of inhibition at 4.88 µg/mL: 0 mm
Candida albicans [5]; [13]
  zone of inhibition at 9.75 µg/mL: 0 mm
Candida albicans [5]; [14]
  zone of inhibition at 19.5 µg/mL: 0 mm
Candida albicans [5]; [15]
  zone of inhibition at 39.1 µg/mL: 16 mm
Candida albicans [5]; [16]
  zone of inhibition at 78.1 µg/mL: 20 mm
Candida albicans [5]; [17]
  zone of inhibition at 156.3 µg/mL: 23 mm
Candida albicans [5]; [18]
  zone of inhibition at 312.5 µg/mL: 25 mm
Candida albicans [5]; [19]
  zone of inhibition at 625 µg/mL: 28 mm
Candida albicans [5]; [20]
  zone of inhibition at 1250 µg/mL: 32 mm
Candida albicans [5]; [21]
  zone of inhibition at 2500 µg/mL: 34 mm
Candida albicans [5]; [22]
  zone of inhibition at 5000 µg/mL: 35 mm
Candida albicans [5]; [23]
  zone of inhibition at 10000 µg/mL: 36 mm
Candida albicans [5]; [24]
  MIC: 39.1 µg/mL (≈ 91.7 µM)
HCT116 [6]
  DNA damaged cells % (mean ± SEM): 19.75 ± 1.25^b %
HCT116 [6]; of 400 cells analyzed
  Class 0 (no tail), number of cells: 321
  Class 1 (tail length < diameter of nucleus), number of cells: 37
  Class 2 (tail length between 1 and 2 × the diameter of nucleus), number of cells: 24
  Class 3 (tail length > 2 × the diameter of nucleus), number of cells: 18
  No. of cells, Comets: 79
HCT116 [7]
  Change (DNA fragmentation versus untreated cells): 18.10
HCT116 [7]; IC50 concentration, 24 h
  DNA fragmentation % M ± SEM: 29.0 ± 0.54^a %
HCT116 [7]; doxorubicin = 0.00
  Inhibition: -13.81
In vitro
  mortality at 48 h, 100 µg/mL: 28 ± 0.61%
[8]
  IC50: 52.5 ± 0.74 µM
[9]; 100 μg/mL
  mortality at 100 µg/mL: 100%
[9]; MTT
  IC50: 17.6 ± 0.24 µM
Colon cancer (HCT116); HCT-116, 48 h, 100 μg/mL
  mortality at 100 µg/mL: 100%
Colon cancer (HCT116); HCT-116, MTT, 48 h
  IC50: 17.8 ± 0.35 µM
Bacillus mycoides [10]; read-out: Inhibition zone
  zone of inhibition at 4.88 µg/mL: 0 mm
  zone of inhibition at 9.75 µg/mL: 0 mm
  zone of inhibition at 19.5 µg/mL: 16 mm
  zone of inhibition at 39.1 µg/mL: 17 mm
  zone of inhibition at 78.1 µg/mL: 21 mm
  zone of inhibition at 156.3 µg/mL: 25 mm
  zone of inhibition at 312.5 µg/mL: 28 mm
  zone of inhibition at 625 µg/mL: 29 mm
  zone of inhibition at 1250 µg/mL: 30 mm
  zone of inhibition at 2500 µg/mL: 32 mm
  zone of inhibition at 5000 µg/mL: 33 mm
  zone of inhibition at 10000 µg/mL: 33 mm
Bacillus mycoides [10]; [24]
  MIC: 19.5 µg/mL (≈ 45.7 µM)
FASN
  FASN gene expression level: suppression
Escherichia coli [11]; [12]
  zone of inhibition at 4.88 µg/mL: 0 mm
Escherichia coli [11]; [13]
  zone of inhibition at 9.75 µg/mL: 0 mm
Escherichia coli [11]; [14]
  zone of inhibition at 19.5 µg/mL: 0 mm
Escherichia coli [11]; [15]
  zone of inhibition at 39.1 µg/mL: 0 mm
Escherichia coli [11]; [16]
  zone of inhibition at 78.1 µg/mL: 16 mm
Escherichia coli [11]; [17]
  zone of inhibition at 156.3 µg/mL: 20 mm
Escherichia coli [11]; [18]
  zone of inhibition at 312.5 µg/mL: 25 mm
Escherichia coli [11]; [19]
  zone of inhibition at 625 µg/mL: 30 mm
Escherichia coli [11]; [20]
  zone of inhibition at 1250 µg/mL: 32 mm
Escherichia coli [11]; [21]
  zone of inhibition at 2500 µg/mL: 33 mm
Escherichia coli [11]; [22]
  zone of inhibition at 5000 µg/mL: 34 mm
Escherichia coli [11]; [23]
  zone of inhibition at 10000 µg/mL: 35 mm
Escherichia coli [11]; [24]
  MIC: 78.1 µg/mL (≈ 183 µM)
